Experimental data taken from US11931429B2, “Chemiluminescent probes for diagnostics and in vivo imaging” (RAMOT AT TEL-AVIV UNIVERSITY LTD., priority 2016, dated 2024).
Entries after “also recorded” stand apart in the source; their conditions may differ. Like-named read-outs stand apart in the source and are kept apart here.

How the values were obtained:
[1] = Absorbance and fluorescence of phenol-benzoate derivatives in PBS 7.4; assay type: physicochemical; conditions: for λ maxem [nm] / λ maxex [nm] / ΦFluorescence / ε 400 nm: PBS 7.4; for Relative fluorescence emission: PBS 7.4, relative to 6a; for fluorescence emission intensity relative to parent benzoate without chlorine: 7a vs 6a, 9a vs 8a
Experimental: General. […] Fluorescence quantum yield was determined using Hamamatsu Quantaurus-QY.
To evaluate the substituent effect, numerous phenol-benzoate derivatives with acceptor substituents at ortho and para positions of the phenol were synthesized, and their fluorescent emission in PBS 7.4 were measured. The most significant effect was obtained when an acceptor was incorporated at the ortho position of the phenol. Following broad screen of electron-withdrawing groups, we chose to focus on the chlorine, methyl-acrylate and acrylonitrile substituents. It was previously shown that in order to enable the chemiexcitation mechanism under physiological conditions, a chlorine substituent is introduced at the ortho position of phenolic ring. This electron-withdrawing substituent decreases the pKa of the phenol released after cleavage of the protecting group and thereby enriches the relative concertation of the phenolate species in physiological pH. The methyl-acrylate and acrylonitrile substituents induced the highest increase in fluorescence emission of their corresponded phenol-benzoates. The absorbance and fluorescence spectra of selected phenol-benzoate derivatives are shown in FIG. 11, and their molecular structure and spectroscopic parameters are summarized Table 9.

[2] = Chemiluminescence of adamantylidene-dioxetane luminophores 5b-9b in PBS 7.4; assay type: physicochemical; conditions: for chemiluminescence emission signal relative to dioxetane 5b / λ maxCL [nm]: PBS 7.4; for ΦCL(H20) %: aqueous, 5b as reference; for Relative CL emission: relative to 5b; for chemiluminescence emission signal upon deprotonation: water / PBS 7.4
β-galactosidase = conditions: 1 μM, 1.5 units/mL β-galactosidase; for chemiluminescence emission signal relative to Probe 5: PBS pH 7.4 (10% DMSO), room temp
Experimental: Next, we measured the light chemiluminescence emission of the probes, as a function of time, in the presence and in the absence of β-galactosidase.
Commercially available Emerald-II™ enhancer (10%) was added to Probe 5 in the presence of β-galactosidase (in PBS 7.4) and its chemiluminescence emission was compared to that of Probe 6.

[3] = reference compound, known value (Trofimov et al., 1996; Edwards et al., 1994); cited from earlier work
[4] = Chemiluminescence detection of hydrogen peroxide by Probe 10; assay type: biochemical
Experimental: (§1) On the left—a comparison between light emission observed by Probe 10 (1 mM; left vial) to that observed by Luminol (1 mM; right vial) upon incubation with hydrogen peroxide under aqueous conditions at pH 10. Probe 12 is a chemiluminescence for detection of GSH.
(§2) FIGS. 15A-15B show (15A) total light emitted from Probe 10 (100 μM), Probe 11 (10 μM) and Probe 12 (10 μM) in the presence of hydrogen peroxide (1 mM), alkaline phosphatase (AP) (1.5 EU/ml) or glutathione (1 mM). Measurements were conducted in PBS (100 mM), pH 7.4, with 10% DMSO at RT; and (15B) total light emitted from Probe 10 (500 μM), Probe 11 (500 μM) and Probe 12 (10 μM) in PBS (100 mM), pH 7.4 with 10% DMSO over a period of 1 h, with various concentration of the corresponding stimulus. A detection limit (blank control+3 SD) was determined for each probe.
(§3) The activation of our chemiluminescence probes is based on removal of a protecting group from the phenolic moiety. Therefore, different phenol-protecting groups could be incorporated as triggering substrates for various analytes/enzymes (Redy-Keisar et al., 2014). […] Probe 10 was equipped with boronic-ester as a substrate for hydrogen peroxide, Probe 11 with phosphate group as a substrate for alkaline-phosphatase and Probe 12 with dinitro-benzene-sulfonyl group as a substrate for GSH (FIG. 14). The probes were prepared with an acrylic acid or methyl acrylate substituent at the ortho position of the phenolic oxygen. […] As described above, the probes decompose upon their activation to release the excited state of the coresponed benzoate. The acrylate substituent efficiently increases the emissive nature of the released benzoate to produce strong light emission, clearly visible to the naked eye.
(§4) To evaluate the sensitively and selectivity of Probes 10, 11 and 12 to detect their corresponded analyte/enzyme, we determined the probes' limit of detection (LOD). […] Probe 10 could detect hydrogen peroxide with an LOD value of 30 nM, Probe 11 could detect alkaline-phosphatase with an LOD value of 3.9 μU/ml and Probe 12 could detect GSH with an LOD value of 1.7 μM.

Aqueous solubility = assay type: physicochemical
HEK293-LacZ stable cells = assay: Chemiluminescence microscopy imaging of β-galactosidase activity in HEK293-LacZ cells; assay type: cell-based; conditions: 5 μM, 20 min incubation, 60× objective, seconds exposure (Study 2)
Experimental: (§5) Images were obtained following 20 min incubation with cell culture medium containing Probe 3 (5 μM).
(§6) Images were obtained following 20 min incubation with cell culture medium containing Probe 7 (5 μM). Images were taken by the LV200 Olympus-microscope using 60× objective and 40s exposure time.
(§7) Chemiluminescence microscopy imaging of β-galactosidase activity. Chemiluminescence images were acquired using Olympus LV200 inverted microscope fitted with an EMCCD camera (Hamamatsu C9100-13). HEK293 LacZ stable cells (amsbio SC003) and HEK293-WT cells (control) were grown on 35 mm glass bottom petri dishes at 37° C. for 24 h. Cell culture medium was changed to Molecular Probes® Live Cell Imaging Solution containing 5 μM of Probe 3. Cells were incubated for another 20 minutes at 37° C. Thereafter, images were recorded with 20 minutes exposure time.
To improve the image quality, the HEK293-LacZ cells were fixed by using 4% formaldehyde and permeabilized with 0.1% Triton X-100. The cells were then incubated with Probe 3 and imaged by the microscope using a 60× objective (NA 1.42).
Chemiluminescence images were acquired using Olympus LV200 inverted microscope fitted with an EMCCD camera (Hamamatsu C9100-13). […] Thereafter, images were recorded with 40 seconds exposure time.

HEK293-WT cells = assay: Chemiluminescence microscopy imaging, HEK293-WT control cells; assay type: cell-based; conditions: 5 μM, 20 min incubation (Study 2)
Experimental: as §5, §6, §7
as §7, with “Chemiluminescence” for “Chemiluminescence microscopy imaging of β-galactosidase activity. Chemiluminescence”, “of probe 4.” for “of Probe 3.”, “with 40 seconds” for “with 20 minutes”

[5] = Chemiluminescence detection of glutathione by Probe 12; assay type: biochemical
Experimental: as §2
The activation of our chemiluminescence probes is based on removal of a protecting group from the phenolic moiety. Therefore, different phenol-protecting groups could be incorporated as triggering substrates for various analytes/enzymes (Redy-Keisar et al., 2014). […] Probe 10 was equipped with boronic-ester as a substrate for hydrogen peroxide, Probe 11 with phosphate group as a substrate for alkaline-phosphatase and Probe 12 with dinitro-benzene-sulfonyl group as a substrate for GSH (FIG. 14). The probes were prepared with an acrylic acid or methyl acrylate substituent at the ortho position of the phenolic oxygen. […]
To evaluate the sensitively and selectivity of Probes 10, 11 and 12 to detect their corresponded analyte/enzyme, we determined the probes' limit of detection (LOD). […]

[6] = test system: alkaline phosphatase (AP); assay: Chemiluminescence detection of alkaline phosphatase by Probe 11; assay type: biochemical
Experimental: as §1
as §2, with “[…];” for “Measurements were conducted in PBS (100 mM), pH 7.4, with 10% DMSO at RT;”
as §3, §4

[7] = 500 μM probe, PBS (100 mM) pH 7.4, 10% DMSO, 1 h, blank control+3 SD

COC(=O)c1cccc(O)c1Cl [Benzoate 5a, reference compound]
λ maxem [nm] [1]: 470 nm | λ maxex [nm] [1]: 290 nm | Relative fluorescence emission [1]: do not present any measurable fluorescence; also recorded: Negligible

COC1(c2ccc(/C=C/C#N)c(O)c2Cl)OOC12C1CC3CC(C1)CC2C3 (stereo not shown) [Phenol 9b]
chemiluminescence emission signal relative to dioxetane 5b [2]: about 3000 fold | λ maxCL [nm] [2]: 525 nm | ΦCL(H20) % [2]: 9.8% | Relative CL emission [2]: 3043 | chemiluminescence emission signal upon deprotonation [2]: remarkably strong chemiluminescence emission signal

COC1(c2ccc(/C=C/C#N)c(OCc3ccc(O[C@@H]4OC(CO)[C@H](O)C(O)C4O)cc3)c2Cl)OOC12C1CC3CC(C1)CC2C3 (stereo partly shown) [Probe 9]
chemiluminescence emission signal relative to Probe 5 with Emerald-II™ enhancer (β-galactosidase; PBS 7.4 (10% DMSO)): more than 8 fold | chemiluminescence emission signal relative to Probe 5 (β-galactosidase): about 1800 fold

COC1(c2cccc(O)c2Cl)OOC12C1CC3CC(C1)CC2C3 (stereo not shown) [Phenol 5b, reference compound]
λ maxCL [nm] [2]: 470 nm | Relative CL emission [2]: 1 | chemiluminescence emission signal upon deprotonation [2]: extremely weak | ΦCL(H20) % [3]: 3.2×10^−3%

COC(=O)/C=C/c1ccc(C(=O)OC)cc1O [Benzoate 6a]
ΦFluorescence [1]: 0.5% | ε 400 nm [1]: 1200 | λ maxem [nm] [1]: 550 nm | λ maxex [nm] [1]: 400 nm | Relative fluorescence emission [1]: 1

COC(=O)c1ccc(/C=C/C#N)c(O)c1Cl [Benzoate 9a]
fluorescence emission intensity relative to parent benzoate without chlorine [1]: about 4 fold | ΦFluorescence [1]: 29.8% | ε 400 nm [1]: 7700 | λ maxem [nm] [1]: 525 nm | λ maxex [nm] [1]: 400 nm | Relative fluorescence emission [1]: 18.0

COC(=O)/C=C/c1ccc(C2(OC)OOC23C2CC4CC(C2)CC3C4)c(Cl)c1O (stereo not shown) [Phenol 7b]
λ maxCL [nm] [2]: 540 nm | ΦCL(H20) % [2]: 2.5% | Relative CL emission [2]: 780 | chemiluminescence emission signal upon deprotonation [2]: remarkably strong chemiluminescence emission signal

COC1(c2ccc(/C=C/C(=O)O)c(B3OC(C)(C)C(C)(C)O3)c2)OOC12C1CC3CC(C1)CC2C3 (stereo not shown) [Probe 10]
LOD for hydrogen peroxide [4, 7]: 30 nM | luminescence upon reaction with analyte ([4]; 1 mM, pH 10): bright green luminescence | selectivity towards analyte of choice ([4]; vs alkaline phosphatase and glutathione, physiological conditions): very good selectivity | aqueous solubility (Aqueous solubility): increased significantly

COC(=O)c1ccc(/C=C/C#N)c(O)c1 [Benzoate 8a]
ΦFluorescence [1]: 7% | ε 400 nm [1]: 2200 | λ maxem [nm] [1]: 525 nm | λ maxex [nm] [1]: 400 nm | Relative fluorescence emission [1]: 4.7

COC(=O)c1cccc(O)c1 [Benzoate 4a, reference compound]
λ maxem [nm] [1]: 470 nm | λ maxex [nm] [1]: 290 nm | Relative fluorescence emission [1]: do not present any measurable fluorescence; also recorded: negligible

COC(=O)/C=C/c1ccc(C2(OC)OOC23C2CC4CC(C2)CC3C4)cc1O (stereo not shown) [Phenol 6b]
chemiluminescence emission signal relative to dioxetane 5b [2]: about 700 fold | λ maxCL [nm] [2]: 540 nm | ΦCL(H20) % [2]: 2.3% | Relative CL emission [2]: 724 | chemiluminescence emission signal upon deprotonation [2]: remarkably strong chemiluminescence emission signal

COC(=O)/C=C/c1ccc(C2(OC)OOC23C2CC4CC(C2)CC3C4)c(Cl)c1OCc1ccc(O[C@@H]2OC(CO)[C@H](O)C(O)C2O)cc1 (stereo partly shown) [Probe 7]
chemiluminescence images of HEK293-LacZ cells (HEK293-LacZ stable cells): high quality chemiluminescence images; also recorded: excellent chemiluminescence cell images | chemiluminescence signal of HEK293-WT cells (HEK293-WT cells): No chemiluminescence signal at all was observed

COC(=O)/C=C/c1ccc(C2(OC)OOC23C2CC4CC(C2)CC3C4)cc1OCc1ccc(NS(=O)(=O)c2ccc([N+](=O)[O-])cc2[N+](=O)[O-])cc1 (stereo not shown) [Probe 12]
LOD for GSH ([5]; 10 μM probe, PBS (100 mM) pH 7.4, 10% DMSO, 1 h, blank control+3 SD): 1.7 µM | selectivity towards analyte of choice ([5]; vs hydrogen peroxide and alkaline phosphatase, physiological conditions): very good selectivity | aqueous solubility (Aqueous solubility): relatively moderate aqueous solubility | applicable concentration range (Aqueous solubility; aqueous): 1 to 10 µM

COC1(c2ccc(/C=C/C(=O)O)c(OP(=O)(O)O)c2)OOC12C1CC3CC(C1)CC2C3 (stereo not shown) [Probe 11]
LOD for alkaline-phosphatase [6, 7]: 3.9 μU/ml | luminescence upon reaction with enzyme ([6]; 1 mM, pH 10): bright green luminescence | selectivity towards analyte of choice ([6]; vs hydrogen peroxide and glutathione, physiological conditions): very good selectivity | aqueous solubility (Aqueous solubility): increased significantly

COC(=O)/C=C/c1ccc(C(=O)OC)c(Cl)c1O [Benzoate 7a]
fluorescence emission intensity relative to parent benzoate without chlorine [1]: about 10 fold | ΦFluorescence [1]: 5.2% | ε 400 nm [1]: 7400 | λ maxem [nm] [1]: 550 nm | λ maxex [nm] [1]: 400 nm | Relative fluorescence emission [1]: 10.6

COC1(c2ccc(/C=C/C#N)c(O)c2)OOC12C1CC3CC(C1)CC2C3 (stereo not shown) [Phenol 8b]
λ maxCL [nm] [2]: 525 nm | ΦCL(H20) % [2]: 7.4% | Relative CL emission [2]: 2295 | chemiluminescence emission signal upon deprotonation [2]: remarkably strong chemiluminescence emission signal

COC(=O)/C=C/c1ccc(C2(OC)OOC23C2CC4CC(C2)CC3C4)cc1OCc1ccc(O[C@@H]2OC(CO)[C@H](O)C(O)C2O)cc1 (stereo partly shown) [Probe 6]
chemiluminescence emission signal relative to Probe 5 (β-galactosidase): about 500 fold
